According to US20250195412A1, “PHARMACEUTICAL FORMULATIONS OF R-KETAMINE” (priority 2022, published 2025):
In brackets after ≈: the same amount, converted by molar mass. Several values for one entry are separate records, joined by “and”; a condition that tells them apart may be missing. Equal entries are not always repeated. Entries after “also recorded” stand apart in the source; their conditions may differ.

Columns and labels:
[1] = Hygroscopicity, DVS experiments; type: physicochemical; conditions: between 50% RH to 90% RH in DVS experiments
[2] = Cyclodextrin inclusion: API content of filtered solution by HPLC; type: physicochemical; conditions: nominal 100 mg/ml (86.96 mg/ml free base)
Protocol: (§1) The effect of hydroxypropyl β-cyclodextrin (HPB) on the solubility of R-ketamine at different pH values was investigated. Varied factors were pH of the solution and the concentration of HPB. Response factors were tonicity, which was determined by freezing point depression, and API content, which was measured by HPLC, of a filtered (0.22 μm) solution.
(§2) After dissolving the active ingredient (100 mg/ml, 86.96 mg/ml free base), a defined amount of HPB was added. After complete solution of the two components, the target pH was adjusted with sodium hydroxide solution (1 M). The resulting solution was filtered through a syringe filter (0.22 μm) and analyzed by HPLC and freezing point depression. A separate protocol was prepared for each individual experiment.

[3] = Cyclodextrin inclusion: tonicity by freezing point depression; type: physicochemical
Protocol: as §1, §2

[4] = Cosolvent screening: assay of filtered sample by HPLC; type: physicochemical
Protocol: (§3) For cosolvent screening, a set of possible candidates was identified. Specifically, 5% sulfobutyl-ether-β-cyclodextrin (SBE7), polyethylene glycol 400 (PEG 400), glycerol, propylene glycol, and 5% polysorbate 80 were to be screened at pH 5 and 6. Unless otherwise specified, cosolvents were screened at 20% and 50% (m/V). As a control, the solubility of R-ketamine in water was studied at pH 5 and 6.
(§4) The test solution consisting of water for injection. The respective cosolvent was prepared and the active substance was dissolved to a nominal concentration of 100 mg/ml (equaling 86.96 mg/ml free base). The pH was then adjusted to pH 5 with 1N NaOH and a sample was obtained under filtration (0.22 μm). Thereafter, the pH was further increased to pH 6 and another sample was taken (also filtered). Both samples were analyzed for assay and tonicity by HPLC and freezing point depression.
(§5) • Batch size: 90 g/pH set at end of compounding (1N NaOH/1N HCl)

[5] = Cosolvent screening: tonicity by freezing point depression; type: physicochemical
Protocol: as §3, §4, §5

[6] = Citrate buffer: content of filtered sample by HPLC, visual precipitation; type: physicochemical
Protocol: (§6) One finding from the previous Examples was that there is a range between pH 5 and 6 in which 60 mg/ml API can be dissolved. Strong precipitation of the free base only occurs above a pH of 5.9 according to the observation. Based on this observation, it was decided to investigate two compendial buffer systems (citrate and phosphate buffer) for their ability to hold 60 mg/ml of R-ketamine in solution and stabilize the formulation against pH shifts. Another change was that the pH adjustment was done with 0.15 N NaOH instead of 1 N NaOH in the following experiments. This change was underdone because there were concerns that the very alkaline microenvironment around the drops of sodium hydroxide solution would lead to the formation of flakes that were difficult to dissolve.
(§7) The ingredients for a 20 mM buffer and the appropriate amount of R-ketamine HCl (60 mg/ml, equaling 52.2 mg/ml free base) were weighed together and diluted in water for injection. Subsequently, the pH was adjusted, e.g. to 5.2. After filling up to the target volume, the mixture was stirred for a defined time and a sample was obtained under filtration (0.22 μm). This sample was analyzed for content by HPLC and for tonicity by freezing point depression.

[7] = Citrate buffer: tonicity by freezing point depression; type: physicochemical
Protocol: as §6, §7

[8] = Phosphate buffer: content of filtered sample by HPLC, visual precipitation; type: physicochemical
Protocol: as §7
(§8) Based on the previous results from the citrate buffer series experiment, the experiments with the phosphate buffer could be limited to pH 5.8. The nominal concentrations 60 and 70 mg/ml were investigated.
(§9) The solution was prepared and tested as described for the citrate buffer.

[9] = Phosphate buffer: tonicity by freezing point depression; type: physicochemical
Protocol: as §7, §8, §9

[10] = Orientative stability examination of phosphate-buffered formulation, room temperature storage; type: physicochemical; conditions: 60 mg/mL in phosphate buffer pH 5.8, room temperature, two weeks
[11] = Initial tests with maleic acid buffering: dissolution behaviour and pH; type: physicochemical
Protocol: Due to its ability to act as a buffer in the acidic to neutral range, a 0.02 M aqueous maleic acid solution was proposed as the base formulation. The aim was to investigate the dissolving capacity for R-ketamine in the concentration range of 60, 80 and 100 mg/ml at pH 5.5 and 5.7 (after the feasibility test with a pH of 5.8 had to be considered as failed) and the stability of the formulations in a study for four weeks.
In an initial feasibility test, the dissolution behaviour of R-ketamine was investigated in the presence of maleic acid. Pure water was used as a comparison. In an aqueous solution of 60 mg/ml R-ketamine without buffering, a pH of 4.65 was obtained. If the same amount of R-ketamine was dissolved in a 0.02 M maleic acid buffer adjusted to pH 5.75, the pH decreased to a value of 5.38.

[12] = pH dependence of solubility / precipitation of the free base in water; type: physicochemical
Protocol: From pH 5.5, the free base consequently precipitates, if this is not prevented by the addition of suitable excipients.
as §6
The solubility of R-ketamine is strongly pH dependent. In the acidic pH range, the active ingredient is readily soluble, while precipitation occurs at pH values greater than 5.7-5.9. A careful choice of formulation parameters allows the requirements of the application route to be reconciled with the dissolution behavior of the active ingredient. The way in which the pH is adjusted also has a major influence. By using low-concentration alkalis, the formation of highly alkaline microenvironments around the dropping point could be avoided. This prevents the formation of active ingredient flocs that are difficult to dissolve again.

[13] = pH 5.5
[14] = Log P (general properties)
[15] = Solubility profile in solvents
[16] = Cyclodextrin (HPB) 20 %, pH 4.5
[17] = Cyclodextrin (HPB) 20 %, pH 7.5
[18] = 60 mg/ml in 20 mM citrate buffer, pH 5.4
[19] = 60 mg/ml in 20 mM citrate buffer, pH 5.6
[20] = 60 mg/ml in 20 mM citrate buffer, pH 5.8
[21] = 70 mg/ml (60.9 mg/ml free base) in citrate buffer, pH 5.8
[22] = phosphate buffer pH 5.8, nominal 60 mg/ml (52.2 mg/ml free base)
[23] = phosphate buffer pH 5.8, nominal 70 mg/ml (60.9 mg/ml free base)

Structure (SMILES): CN[C@@]1(c2ccccc2Cl)CCCCC1=O [R-ketamine, (2R)-2-(2-chlorophenyl)-2-(methylamino)cyclohexan-1-one]
- Hygroscopicity [1]: Not hygroscopic, no moisture uptake
- Assay ([2]; Cyclodextrin (HPB) 0 %, pH 4.5): 88.9 mg/mL
- Assay ([2]; Cyclodextrin (HPB) 0 %, pH 7.5): 0.9 mg/mL
- Assay ([2]; Cyclodextrin (HPB) 10 %, pH 6): 26.8 mg/mL and 29.6 mg/mL
- Assay [2, 16]: 93.9 mg/mL
- Assay [2, 17]: 11.1 mg/mL
- Tonicity ([3]; Cyclodextrin (HPB) 0 %, pH 4.5): 644 mOsmol
- Tonicity ([3]; Cyclodextrin (HPB) 0 %, pH 7.5): 522 mOsmol
- Tonicity ([3]; Cyclodextrin (HPB) 10 %, pH 6): 680 mOsmol and 683 mOsmol
- Tonicity [3, 16]: 638 mOsmol
- Tonicity [3, 17]: 546 mOsmol
- Assay ([4]; Glycerol 20%, pH 6.0): 19.1 mg/mL
- Assay ([4]; Glycerol 50%, pH 6.0): 20.2 mg/mL
- Assay ([4]; PEG 20%, pH 6.0): 19.9 mg/mL
- Assay ([4]; PEG 50%, pH 6.0): 21.6 mg/mL
- Assay ([4]; Propylene glycol 20%, pH 6.0): 24.5 mg/mL
- Assay ([4]; Propylene glycol 50%, pH 6.0): 46.5 mg/mL
- Assay ([4]; Tween 5%, pH 5.0): 89.2 mg/mL
- Assay ([4]; Tween 5%, pH 6.0): 18.8 mg/mL
- Assay ([4]; Water for injection, pH 5.0, nominal 100 mg/ml (86.96 mg/ml free base)): 88.6 mg/mL
- Assay ([4]; Water for injection, pH 6.0): 19.7 mg/mL
- Tonicity ([5]; Glycerol 20%, pH 6.0): 1445 mOsmol
- Tonicity ([5]; PEG 20%, pH 6.0): 695 mOsmol
- Tonicity ([5]; Tween 5%, pH 5.0): 686 mOsmol
- Tonicity ([5]; Tween 5%, pH 6.0): 602 mOsmol
- Tonicity ([5]; Water for injection, pH 5.0): 651 mOsmol
- Tonicity ([5]; Water for injection, pH 6.0): 568 mOsmol
- Assay ([6]; 60 mg/ml (52.2 mg/ml free base) in 20 mM citrate buffer, pH 5.2): 46.2 mg/mL
- Assay [6, 18]: 46.1 mg/mL
- Assay [6, 19]: 46.4 mg/mL
- Assay [6, 20]: 47.2 mg/mL
- visual precipitation ([6]; 60 mg/ml in citrate buffer, pH 5.2-5.8): no precipitation could be detected visually
- content found ([6]; 60 mg/ml in citrate buffer, range of pH 5.2-5.8): about 46.5 mg/ml
- Assay [6, 21]: 46.2 mg/mL
- precipitation after pH adjustment [6, 21]: precipitation was observed
- Tonicity ([7]; 60 mg/ml in 20 mM citrate buffer, pH 5.2): 534 mOsmol/kg
- Tonicity [7, 18]: 540 mOsmol/kg
- Tonicity [7, 19]: 546 mOsmol/kg
- Tonicity [7, 20]: 561 mOsmol/kg
- Tonicity ([7]; 70 mg/ml in citrate buffer, pH 5.8): 556 mOsmol/kg
- Assay [8, 22]: 51.2 mg/ml free base
- Assay [8, 23]: 59.7 mg/ml free base
- visible precipitation after pH adjustment and filtration ([8]; phosphate buffer pH 5.8, nominal 60 and 70 mg/ml): no visible precipitation
- Tonicity [9, 22]: 476 mOsmol/kg
- Tonicity [9, 23]: 545 mOsmol/kg
- shelf life / precipitation on storage [10]: fine crystalline precipitate was observed; also recorded: precipitation
- pH after dissolving ([11]; 60 mg/ml in 0.02 M maleic acid buffer adjusted to pH 5.75): 5.38
- pH obtained ([11]; aqueous solution of 60 mg/ml R-ketamine without buffering): 4.65
- precipitation on raising the pH to 5.8 ([11]; maleic acid buffer, pH raised to 5.8 with 0.15 M NaOH): without precipitation
- pH from which the free base precipitates ([12]; in water, without suitable excipients, Henderson-Hasselbalch, FIG. 1): ≥ 5.5
- pH above which precipitation of the free base occurs ([12]; observed in the experiments): > 5.9 and 5.7-5.9
- API that can be dissolved ([12]; range between pH 5 and 6): 60 mg/mL
- decrease of pH over the study, average [13]: 0.2 pH units
- four-week stability assay [13]: satisfactory stability
- pKa (pKa (general properties)): 7.5
- logP [14]: 2.18
- Solubility Classification (EP) ([15]; 1-propanol): Sparingly soluble
- solubility ([15]; 1-propanol, organic solvent or mixture): 13 to 15 mg/mL (≈ 54.7 to 63.1 mM)
- Solubility Classification (EP) ([15]; 2-propanol): Slightly soluble
- solubility ([15]; 2-propanol, organic solvent or mixture): ~4 mg/mL (≈ 16.8 mM)
- Solubility Classification (EP) ([15]; Acetone, acetonitrile, anisole, ethyl acetate, heptane, methyl ethyl ketone, methyl iso-butyl ketone, tetrahydrofuran, methyl tert-butyl ether): Very slightly soluble
- Solubility Classification (EP) ([15]; DMSO, Ethanol): Sparingly soluble
- solubility ([15]; DMSO, ethanol, organic solvent or mixture): 20 to 30 mg/mL (≈ 84.1 to 126 mM)
- Solubility Classification (EP) ([15]; Methanol): Soluble
- Solubility Classification (EP) ([15]; Water): Freely soluble
- solubility ([15]; methanol, organic solvent or mixture): 50 to 100 mg/mL (≈ 210 to 421 mM)
- solubility ([15]; organic solvent or mixture): < 1 mg/mL
- solubility ([15]; water): > 140 mg/mL
- solubility ([15]; water, pH 4, water): > 140 mg/mL
